The text below walks through data of article PMC4777262 (Pharmacology Research & Perspectives, 2016).

What is called IC50 is the midpoint of a concentration-inhibition curve. Low readings indicate higher potency, high ones lower potency.

One assay addresses IMPDH2 (Homo sapiens, UniProt P12268). Briefly: spectrophotometric NADH production at […] nm. The assay is classed as biochemical.
In a further assay the target is IMPDH1 (Homo sapiens, UniProt P20839). Briefly: spectrophotometric NADH production at […] nm. It is filed as biochemical.
IMPDH1, sequence (P20839 2-514): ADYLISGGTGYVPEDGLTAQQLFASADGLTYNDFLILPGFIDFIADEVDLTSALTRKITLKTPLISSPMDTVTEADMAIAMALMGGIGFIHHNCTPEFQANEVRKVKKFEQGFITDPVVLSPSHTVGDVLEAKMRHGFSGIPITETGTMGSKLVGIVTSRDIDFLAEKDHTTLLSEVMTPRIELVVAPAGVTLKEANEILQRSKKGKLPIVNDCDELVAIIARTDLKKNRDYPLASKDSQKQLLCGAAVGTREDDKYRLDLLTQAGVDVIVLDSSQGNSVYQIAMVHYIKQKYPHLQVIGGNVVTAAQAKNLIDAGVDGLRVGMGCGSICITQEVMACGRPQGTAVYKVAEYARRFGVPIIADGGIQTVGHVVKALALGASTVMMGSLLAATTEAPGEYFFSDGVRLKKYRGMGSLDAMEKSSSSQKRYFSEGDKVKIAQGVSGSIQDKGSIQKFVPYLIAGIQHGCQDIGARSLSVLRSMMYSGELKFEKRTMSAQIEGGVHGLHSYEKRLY

IMPDH2, sequence (P12268 2-514): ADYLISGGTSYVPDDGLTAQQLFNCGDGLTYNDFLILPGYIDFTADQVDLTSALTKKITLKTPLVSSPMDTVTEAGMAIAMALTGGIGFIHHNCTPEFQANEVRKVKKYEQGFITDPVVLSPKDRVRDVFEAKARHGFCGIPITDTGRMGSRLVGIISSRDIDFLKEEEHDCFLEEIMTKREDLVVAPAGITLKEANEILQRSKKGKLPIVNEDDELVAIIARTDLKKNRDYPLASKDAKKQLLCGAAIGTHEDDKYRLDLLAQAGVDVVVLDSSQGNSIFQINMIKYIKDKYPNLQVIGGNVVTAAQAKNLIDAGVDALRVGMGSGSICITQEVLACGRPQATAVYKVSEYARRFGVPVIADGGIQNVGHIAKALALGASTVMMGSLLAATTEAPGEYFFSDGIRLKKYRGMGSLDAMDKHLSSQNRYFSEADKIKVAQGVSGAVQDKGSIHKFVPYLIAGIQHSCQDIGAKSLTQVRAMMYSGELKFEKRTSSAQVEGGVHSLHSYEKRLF

Regarding `NC(=O)c1ncn([C@@H]2O[C@H](COP(=O)(O)O)[C@@H](O)[C@H]2O)c1O` [FF‐10501RMP], the IC50 at IMPDH2 was 31.8 ± 5.6 nM; against IMPDH1 it was 29 ± 10.3 nM. On IMPDH1, `COc1c(C)c2c(c(O)c1C/C=C(\C)CCC(=O)O)C(=O)OC2` [Mycophenolic acid, reference compound] displayed an IC50 of 26.4 ± 1.5 nM.
